# Measurements reported in article PMC11111955, “Safety and efficacy evaluation of halicin as an effective drug for inhibiting intestinal infections” (Frontiers in Pharmacology, 2024).
# Experiments:
# [1] = test system: A. baumannii (ATCC 19606); test: Minimum inhibitory concentration (MIC); assay type: cell-based, Acinetobacter baumannii
# Experimental: The test strains were inoculated on the corresponding solid medium and incubated overnight at 37°C. A single colony was picked from the medium and inoculated into Luria Broth (LB), and then incubated overnight at 37°C with shaking at 220 rpm. The bacterial suspension was diluted to 0.5 McFarland turbidity with Mueller Hinton broth (MHB), and then dilute 100 times for later use. Halicin was added to the 96-well plate, and diluted it to concentrations of 128, 64, 32, 16, 8, 4, 2, 1, 0.5, 0.25, 0.125, and 0 μg/mL by gradient. The 96-well plate was incubated at 37°C for 16 h, followed by observing and recording the results. The MIC was determined as the concentration at which there was no visible colony growth was observed.
# [2] = test system: R. anatipestifer (ATCC 11845); test: Minimum inhibitory concentration (MIC); assay type: cell-based, Riemerella anatipestifer
# [3] = test system: E. coli (ATCC 25922); test: Multipassage resistance study (continuous induction); conditions: after multipassage induction
structure (smiles),measurement,setting,value
Nc1nnc(Sc2ncc([N+](=O)[O-])s2)s1 [halicin],MIC,[1],8 µg/mL
same,MIC,"[2]; R. anatipestife (ATCC 11845), second listing",8 µg/mL
same,MIC,"[2]; R. anatipestifer (ATCC 11845), first listing",4 µg/mL
same,MIC of ECR (E. coli ATCC 25922 resistant strains),[3],32 µg/mL
